Earlier results, collected in US20220288158A1, “NOVEL ENTERIC COMBINATION THERAPY” (priority 2009, published 2022).

Tested on: patients with constipation
Settings: for effect on bowel activity when used in constipation: literature, Brandt L J et al 2009

Molecule | effect on bowel activity when used in constipation | use of vancomycin alone in constipation (not all patients respond, and respond but partially)
CC[C@H]1OC(=O)[C@H](C)[C@@H](O[C@H]2C[C@@](C)(OC)[C@@H](O)[C@H](C)O2)[C@H](C)[C@@H](O[C@@H]2O[C@H](C)C[C@H](N(C)C)[C@H]2O)[C@](C)(OC)C[C@@H](C)C(=O)[C@H](C)[C@@H](O)[C@]1(C)O [clarithromycin] | variable and not reproducible | 
Cc1ncc([N+](=O)[O-])n1CCO [metronidazole] | variable and not reproducible | 
CO[C@H]1/C=C/O[C@@]2(C)Oc3c(C)c(O)c4c(O)c(c5c(nc6cc(C)ccn65)c4c3C2=O)NC(=O)/C(C)=C\C=C\[C@H](C)[C@H](O)[C@@H](C)[C@@H](O)[C@@H](C)[C@H](OC(C)=O)[C@@H]1C [rifaximin] | variable and not reproducible | 
CN[C@H](CC(C)C)C(=O)N[C@H]1C(=O)N[C@@H](CC(N)=O)C(=O)N[C@H]2C(=O)N[C@H]3C(=O)N[C@H](C(=O)N[C@H](C(=O)O)c4cc(O)cc(O)c4-c4cc3ccc4O)[C@H](O)c3ccc(c(Cl)c3)Oc3cc2cc(c3O[C@@H]2O[C@H](CO)[C@@H](O)[C@H](O)[C@H]2O[C@H]2C[C@](C)(N)[C@H](O)[C@H](C)O2)Oc2ccc(cc2Cl)[C@H]1O [vancomycin] |  | inefficient
neomycin | variable and not reproducible | 
